According to BindingDB's records for doi:10.1016/j.chembiol.2007.06.006 (Northwestern University, 2007):
pIC50: −log10 of the molar value.

Target: T1, Progesterone receptor (Homo sapiens, UniProt P06401)
T1 sequence (P06401 whole entry): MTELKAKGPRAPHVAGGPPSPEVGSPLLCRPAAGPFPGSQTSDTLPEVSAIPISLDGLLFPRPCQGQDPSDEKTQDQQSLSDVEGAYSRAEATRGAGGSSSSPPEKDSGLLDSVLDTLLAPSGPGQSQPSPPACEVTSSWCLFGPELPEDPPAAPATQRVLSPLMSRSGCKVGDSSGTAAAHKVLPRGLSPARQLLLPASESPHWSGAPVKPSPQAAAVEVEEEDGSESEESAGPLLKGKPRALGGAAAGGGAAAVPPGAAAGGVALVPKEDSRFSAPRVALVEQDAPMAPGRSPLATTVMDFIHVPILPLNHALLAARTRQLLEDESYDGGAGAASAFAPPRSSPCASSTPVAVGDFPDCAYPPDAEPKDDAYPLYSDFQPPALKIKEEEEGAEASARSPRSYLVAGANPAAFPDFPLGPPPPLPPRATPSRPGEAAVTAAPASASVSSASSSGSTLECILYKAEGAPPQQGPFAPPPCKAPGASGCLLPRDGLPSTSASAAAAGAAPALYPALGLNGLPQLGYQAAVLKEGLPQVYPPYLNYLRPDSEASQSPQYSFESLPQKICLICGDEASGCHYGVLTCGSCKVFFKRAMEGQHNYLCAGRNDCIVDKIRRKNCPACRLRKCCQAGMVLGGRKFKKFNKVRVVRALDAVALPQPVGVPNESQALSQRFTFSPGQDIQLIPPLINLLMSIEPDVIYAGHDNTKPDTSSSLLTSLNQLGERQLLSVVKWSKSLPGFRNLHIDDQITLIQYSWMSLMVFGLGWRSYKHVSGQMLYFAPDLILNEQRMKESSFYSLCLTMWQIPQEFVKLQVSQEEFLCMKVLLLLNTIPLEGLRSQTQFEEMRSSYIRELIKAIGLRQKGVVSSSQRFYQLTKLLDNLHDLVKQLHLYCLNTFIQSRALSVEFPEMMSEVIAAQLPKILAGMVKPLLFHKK
Test: Progesterone Receptor Binding Assay
Details: 22 °C

Row | Structure (SMILES) | pIC50
1 | C[C@]12CCC(=O)C=C1CCC1C2CC[C@@]2(C)C1CC[C@@H]2C(=O)COCCCCCC[N+]12CC[N+]34CC[N+]56CC[N+]7(CC1)CC(=O)[O][Gd-4]2375([O]C(=O)C4)[O]C(=O)C6 (some centres not stated) [Steroid-Gd (III) conjugate, 2] | 6.34
2 | C[C@]12CCC(=O)C=C1CCC1C2CC[C@@]2(C)C1CC[C@@H]2C(=O)COCCCCCCNC(=S)Nc1ccc(CC2C[N+]34CC[N+]56CC[N+]78CC[N+]29CC(=O)[O][Gd-5]5739([O]C(=O)C6)([O]C(=O)C8)[O]C(=O)C4)cc1 (some centres not stated) [Steroid-Gd (III) conjugate, 3] | 6.07
